Experimental data taken from article PMC4949440 (Scientific Reports, 2016).
Where two headings read alike, the source gives them in different places.

Experiments:
HL-60 cells [1] = assay: cells; assay type: cell-based, human
MCF-7 cells = assay: cells; assay type: cell-based; details: read-out: IC50 MCF-7
SGC7901 cells = assay: cells; assay type: cell-based; details: read-out: IC50 SGC7901
GES-1 cells = assay: cells; assay type: cell-based; details: read-out: IC50 GES-1
HEK293 cells = assay: cells; assay type: cell-based
NIH3T3 cells = assay: cells; assay type: cell-based
HL-60 cells [2] = assay type: cell-based, human; details: for apoptosis rate (FITC+/PI− and FITC+/PI+): control 2.9%
HL-60 cells [3] = assay: Hoechst 33342 staining, morphology; assay type: cell-based, human; details: 2a (1 μM and 2 μM) or 2b (0.75 μM and 1.5 μM), 24 h
Description: HL-60 cells treated with 2a (1 μM and 2 μM) or 2b (0.75 μM and 1.5 μM) were plated in 12-well plates, and the medium was removed after 24 h, followed by the addition of 5 μg.mL^−1 Hoechst 33342. After being incubated for 30 min in dark at 37 °C, the samples were visualized and photographed using a C1-si Laser Scanning Confocal Microscope (Nikon, Japan)[27].

HL-60 cells [4] = assay: Intracellular ROS level (DCFH-DA); assay type: cell-based, human; details: 2 μM 2a or 1.5 μM 2b, 24 h
Description: HL-60 cells treated with 2 μM 2a or 1.5 μM 2b were plated in 12-well plates. After 24 h, each sample of cells was collected and washed once with PBS. The cells were incubated with 300 μL FBS-free medium containing DCFH-DA (1 μM) for 30 min in dark at 37 °C. Data were obtained and analyzed using a C6 flow cytometer (BD Biosciences, USA)[27].
In laser scanning confocal experiment, the medium was removed after 24 h incubation. 1 mL FBS-free medium with DCFH-DA (10 μM) was added to each sample. Then continue the incubation for 30 min in dark at 37 °C. The samples were visualized and photographed using a C1-si Laser Scanning Confocal Microscope (Nikon, Japan).
(§1) In protective trial, the cells were pre-incubated with the protective agents for 4 h and other operations were in accordance with the above.

HL-60 cells [5] = assay: Total glutathione and GSH/GSSG level; assay type: cell-based, human; details: 2 μM 2a or 1.5 μM 2b; for ratio of GSH/GSSG: with or without 0.075 mM LA
Description: The cells were cultured in a 6-well plate and treated with 2 μM 2a or 1.5 μM 2b. After 24 h, the cells were collected and washed twice with PBS. The protein content was quantified by the use of Bradford procedure. Then each sample was treated according to the manufacturer’s instructions (beyotime, Shanghai, China). The absorbance was measured every 5 minutes at 405 nm with microplate reader.
as §1

HL-60 cells [6] = assay: Mitochondrial membrane potential (JC-1 or Rh123, flow cytometry); assay type: cell-based, human
Description: HL-60 cells treated with 2a (1.5 μM and 3 μM) or 2b (1 μM and 2 μM) were plated in 12-well plates. After 24 h, cells were collected and washed once with PBS. Then, the cells were handled with JC-1 according to the manufacturer’s instructions (Multi Sciences BiotechCo., Ltd, Hangzhou, China) or Rh123. Data were obtained and analyzed using a C6 flow cytometer (BD Biosciences, USA).
as §1

HL-60 cells [7] = assay: Released cytochrome c level (ELISA); assay type: cell-based, human; details: 3 μM 2a or 2 μM 2b, 24 h
Description: HL-60 cells with 3 μM 2a or 2 μM 2b were incubated in a 12-well plate for 24 h. The cells were sacrificed and dealt with ELISA Kit (Meilian BiotechCo., Ltd, Shanghai, China) according to the manufacturer’s instructions. The absorbance was measured at 450 nm with microplate reader.
as §1

Caspase-3 in HL-60 cells = assay: Caspase-3 activity (colorimetric, cell extracts); assay type: cell-based, human
Description: HL-60 cells were treated with 3 μM 2a or 2 μM 2b for 12 h in a 6-well plate. Each sample was collected and washed twice with PBS. Then the cells were incubated with moderate lysis buffer from the kit on ice. The cell extract was handled on the basis of manufacturer’s instructions (beyotime, Shanghai, China). After 3 h, the absorbance at 405 nm was measured using a microplate reader.
as §1

normal leukocyte = assay: Effect on normal leukocyte (MTT viability and Annexin V-FITC/PI apoptosis); assay type: cell-based, human; details: 3.5 μM 2a, 2.5 μM 2b or 15 μM As2O3 for 6 h, 12 h or 24 h
Description: Normal human fresh peripheral blood with EDTA anticoagulant was dealt with Red Blood Cell Lysis Buffer according to manufacturer’s instructions (Beyotime, Shanghai, China) to obtain the normal leukocyte. […] Then, the apoptosis rate using Annexin V-FITC/PI staining and cell viability using MTT method were tested respectively. There are 8 independent normal human fresh peripheral blood samples in all to be tested. This study was carried out in accordance with relevant guidelines and regulations of Wuhan University and the experiment protocol was approved by Zhongnan Hospital of Wuhan University. Additionally, the informed consent was obtained from all subjects.

[8] = Homo sapiens, HL-60, 24 h, read-out: IC50 HL-60
[9] = Homo sapiens, HEK293, read-out: IC50 HEK293
[10] = Mus musculus, NIH3T3, read-out: IC50 NIH3T3
[11] = 3 μM 2a or 2 μM 2b alone, 24 h (Fig. 2a, Fig. 6c)
[12] = 3 μM 2a or 2 μM 2b alone, 24 h, LA experiment (Fig. 6d)
[13] = 3 μM 2a or 2 μM 2b with 0.075 mM LA pre-incubating, 24 h
[14] = 3 μM 2a or 2 μM 2b with 2 mM NAC, 24 h
[15] = 3 μM 2a or 2 μM 2b, 24 h (Fig. 2a)
[16] = 3 μM 2a or 2 μM 2b after pre-adding 0.075 mM LA
[17] = 3 μM 2a or 2 μM 2b, 24 h (Fig. 5b), control 30.8%
[18] = 3 μM 2a or 2 μM 2b alone, 24 h, 12 h (method)
[19] = 3 μM 2a or 2 μM 2b with 0.075 mM LA

Row | Compound | IC50 (HL-60 cells [1]; [8]) | IC50 (MCF-7 cells; Homo sapiens, MCF7, 24 h) | IC50 (SGC7901 cells; Homo sapiens, SGC-7901, 24 h) | IC50 (GES-1 cells; Homo sapiens, GES1, 24 h) | concentration that could kill the majority of HL-60 cells (HL-60 cells [1]) | IC50 (HEK293 cells; [9]) | IC50 (NIH3T3 cells; [10]) | apoptosis rate (FITC+/PI− and FITC+/PI+) (HL-60 cells [2]; 1.5 μM 2a or 1 μM 2b, 24 h) | Q1-LL live (normal) cells (HL-60 cells [2]; [11]) | apoptosis rate (HL-60 cells [2]; [12]) | apoptosis rate (HL-60 cells [2]; [13]) | Q1-LL live (normal) cells (HL-60 cells [2]; [14]) | apoptosis rate (FITC+/PI− and FITC+/PI+) (HL-60 cells [2]; [15]) | morphology changes (Hoechst 33342 fluorescence) (HL-60 cells [3]) | relative fluorescence intensity of DCF (ROS) versus control (HL-60 cells [4]) | ROS level with antioxidant (HL-60 cells [4]; 0.075 mM LA pre-incubated 4 h) | ROS level with antioxidant (HL-60 cells [4]; 1 mM DTT pre-incubated 4 h) | ROS level with antioxidant (HL-60 cells [4]; 1 mM VC pre-incubated 4 h) | ROS level with antioxidant (HL-60 cells [4]; 2 mM NAC pre-incubated 4 h) | ROS level with antioxidant (HL-60 cells [4]; pretreated with GSH) | further results
1 | Oc1ccccc1C=Nc1ccccc1 [Compound 1a, 2-((phenylimino)methyl) phenol, reference compound] | > 100 µM | > 100 µM | > 100 µM | > 100 µM |  |  |  |  |  |  |  |  |  |  |  |  |  |  |  |  | 
2 | O=[As]c1ccc(N=Cc2ccccc2O)cc1 (centres unmarked) [Compound 2a, 2-(((4-(oxoarsanyl)phenyl)imino)methyl)phenol] | 0.77 ± 0.1 µM | 2.53 ± 0.41 µM | 4.03 ± 0.89 µM | 5.96 ± 1.23 µM | less than 1 μM | 4.36 ± 0.62 µM | 7.43 ± 0.37 µM | 9.3% | 44.3% | 55.7% | 11.4% | 86.6% | 55.5% | cell nuclear shrinkage and DNA incision | doubled approximately | scavenging ROS completely | scavenge additional ROS completely | decrease the level of ROS to that of control | scavenge additional ROS completely | began to decrease by a concentration-dependent way | content of intracellular total GSH (HL-60 cells [5]; 24 h): decreased significantly; content of intracellular total GSH (HL-60 cells [5]; pretreatment with 0.075 mM LA): could recover the content; ratio of GSH/GSSG (HL-60 cells [5]): showed the similar variation trend; intensity of Rh123 (mitochondrial membrane potential) (HL-60 cells [6]; 3 μM 2a or 2 μM 2b): drop obviously; intensity of Rh123 (mitochondrial membrane potential) (HL-60 cells [6]; [16]): recovered to some extent; proportion of mitochondrial membrane potential collapse (P2, JC-1) (HL-60 cells [6]; [17]): 68.3%; relative content of cytochrome c versus control (HL-60 cells [7]): approximately six times; activity of Caspase-3 (Caspase-3 in HL-60 cells; [18]): enhanced; activity of Caspase-3 (Caspase-3 in HL-60 cells; [19]): could be deterred by 0.075 mM LA; influence on normal leukocyte (cell viability, apoptosis) versus control (normal leukocyte): no more influence on normal leukocyte than control
3 | COc1cc(C=Nc2ccc([As]=O)cc2)ccc1O (centres unmarked) [Compound 2b, 2-methoxy-4-(((4-(oxoarsanyl)phenyl)imino)methyl)phenol] | 0.51 ± 0.1 µM | 2.81 ± 1.34 µM | 2.12 ± 0.48 µM | 1.57 ± 0.26 µM | less than 1 μM | 2.29 ± 0.34 µM | 2.72 ± 0.64 µM | 10.7% | 34.4% | 86.1% | 11.7% | 92.1% | 65.3% | cell nuclear shrinkage and DNA incision | doubled approximately | scavenging ROS completely | eliminate the majority of ROS | eliminate the majority of ROS | removed completely | began to decrease by a concentration-dependent way | content of intracellular total GSH (HL-60 cells [5]; 24 h): decreased significantly; content of intracellular total GSH (HL-60 cells [5]; pretreatment with 0.075 mM LA): could recover the content; ratio of GSH/GSSG (HL-60 cells [5]): showed the similar variation trend; intensity of Rh123 (mitochondrial membrane potential) (HL-60 cells [6]; 3 μM 2a or 2 μM 2b): drop obviously; intensity of Rh123 (mitochondrial membrane potential) (HL-60 cells [6]; [16]): recovered to some extent; proportion of mitochondrial membrane potential collapse (P2, JC-1) (HL-60 cells [6]; 3 μM 2a or 2 μM 2b with 0.075 mM LA pre-incubation (Fig. 5b)): ~12%; proportion of mitochondrial membrane potential collapse (P2, JC-1) (HL-60 cells [6]; [17]): 78.5%; relative content of cytochrome c versus control (HL-60 cells [7]): five times; activity of Caspase-3 (Caspase-3 in HL-60 cells; [18]): enhanced; activity of Caspase-3 (Caspase-3 in HL-60 cells; [19]): could be deterred by 0.075 mM LA; influence on normal leukocyte (cell viability, apoptosis) versus control (normal leukocyte): no more influence on normal leukocyte than control
4 | O=[As]c1ccc(N=Cc2c3ccccc3cc3ccccc23)cc1 (centres unmarked) [Compound 4a, 1-(anthracen-9-yl)-N-(4-(oxoarsanyl)phenyl) methanimine] | 15.9 ± 0.56 µM | 11.3 ± 3.4 µM | 7.63 ± 3.02 µM | 8.72 ± 3.76 µM |  |  |  |  |  |  |  |  |  |  |  |  |  |  |  |  | IC50 (HL-60 cells [1]; Homo sapiens, HL-60, read-out: half inhibitory concentration (IC50) for HL-60 cells): > 10 µM; melting point: 91 to 92 °C
5 | O=[As]O [NaAsO2, reference compound] |  |  |  |  |  |  |  |  |  |  |  |  |  |  |  |  |  |  |  |  | IC50 (HL-60 cells [1]; read-out: IC50 HL-60): 10.6 ± 3.06 µM; IC50 (MCF-7 cells): 31.7 ± 0.67 µM; IC50 (SGC7901 cells): 59 ± 11.8 µM; IC50 (GES-1 cells): 42.6 ± 11.6 µM; IC50 (HEK293 cells; read-out: IC50 HEK293): 14.6 ± 0.61 µM; IC50 (NIH3T3 cells; read-out: IC50 NIH3T3): 10.8 ± 1.66 µM
